Experimental data as given in publication PMC11285769, “A pan-respiratory antiviral chemotype targeting a transient host multi-protein complex” (Open Biology, 2024).
Entries after “also recorded” stand apart in the source; their conditions may differ. Where two headings read alike, the source gives them in different places.

How the values were obtained:
HRV-16 = experiment: HRV assay in H1-HeLa cells by TCID50; assay type: cell-based, human rhinovirus 16; settings: Rhinovirus A
FLUV A/WSN/33 = experiment: microbe, parasite or virus in culture; assay type: cell-based, influenza A/WSN/33; settings: Influenza A virus, MDCK; for IC50: read-out: IC50 (figure 2a)
MHV-68 = experiment: microbe, parasite or virus in culture; settings: Murine herpesvirus, BHK-21
[1] = system: porcine epidemic diarrhoea virus (PEDV); experiment: PEDV pig study; assay type: in vivo; settings: newborn pigs infected with PEDV, 4 mg kg^−1 intramuscular, relative to control
Procedure: 18 litters comprised of 91 individuals of newborn (2–4 days old) crossbred pigs weighing 3 kg were randomized to control (vehicle) or treatment groups. Animals were infected with 1 × 10^5 PFU of PEDV administered orally. Vehicle or drug was administered intramuscular at 4 mg kg^−1 immediately after challenge and again 24 h post-infection. Compound efficacy was determined by survivability. Endpoint of study was 6 days post-infection.

[2] = system: FLUV nucleoprotein capsid assembly; assay type: biochemical, influenza (FLUV)
BoCoV BRCV-OK-0514-2 = experiment: microbe, parasite or virus in culture; assay type: cell-based, bovine coronavirus; settings: Betacoronavirus 1
SARS-CoV-2 WA1/2020 = experiment: microbe, parasite or virus in culture; assay type: cell-based
5-HT2B = 5-HT2B (Homo sapiens, UniProt P41595); experiment: CEREP panel off-target: 5-HT2B; settings: high concentrations
rabies virus CVS-11 = experiment: microbe, parasite or virus in culture; assay type: cell-based
[3] = system: members of Orthomyxoviridae, Coronaviridae, Paramyxoviridae, Adenoviridae, Herpesviridae and Picornaviridae; experiment: microbe, parasite or virus in culture; assay type: cell-based; settings: Orthoherpesviridae, read-out: EC50 across six respiratory viral families
14-3-3 zeta (YWHAZ) = 14-3-3 zeta (YWHAZ) (Homo sapiens, UniProt P63104); assay type: binding
[4] = system: respiratory synctial virus straine A-2; experiment: microbe, parasite or virus in culture; assay type: cell-based; settings: human respiratory syncytial virus, HEp-2, read-out: PAV-431 EC50
[5] = rat, in vivo
[6] = system: human cytomegalovirus strain AD69; experiment: microbe, parasite or virus in culture; assay type: cell-based; settings: Human betaherpesvirus 5, H1-HeLa, read-out: PAV-431 EC50
RSV A-2 virus = experiment: RSV cotton rat study; assay type: in vivo; settings: cotton rats, 2 mg kg^−1 IP twice daily, days −1 to 4, plaque assay
Procedure: Female cotton rats, approximately 5 weeks of age, were obtained from Envigo (formerly Harlan), ear-tagged for identification purposes, and allowed to acclimate for >1 week prior to study start. Animals were housed individually. Vehicle or drug (2 mg kg^−1) was administered by an intraperitoneal route twice daily on study days −1 through day 4. On day 0, animals were infected with 1 × 10^5 PFU of RSV A-2 virus originally obtained from ATCC (VR-1540), administered in a 50 µl volume by an intranasal route approximately 2 h after the morning treatment dose. Back titration of the viral stock and diluted inoculum was performed to confirm the titre of the RSV stock used for infection. All inoculations were performed while the animals were under the influence of inhalant anaesthesia. All animals were euthanized on day 5 and the lungs were processed for determination of RSV titres by plaque assay.

[7] = system: swine influenza virus SIC/SK WT; experiment: microbe, parasite or virus in culture; assay type: cell-based; settings: MDCK, read-out: PAV-431 EC50
p62/SQSTM1 = assay type: cell-based
Nipah virus rNiV-ZsG = experiment: microbe, parasite or virus in culture; assay type: cell-based
in vivo = settings: rat
[8] = Pharmacokinetics, tissue uptake and safety in rats; settings: 5 mg kg^−1 IP
[9] = system: adenovirus serotype 5 strain adenoid 65; experiment: microbe, parasite or virus in culture; assay type: cell-based; settings: unidentified adenovirus, A549, read-out: PAV-431 EC50
hERG channel = hERG channel (Homo sapiens, UniProt Q12809); experiment: hERG channel inhibition
bovine coronavirus = experiment: microbe, parasite or virus in culture; assay type: cell-based; settings: Betacoronavirus 1, read-out: PAV-431 EC50
[10] = HRV16, HRV-16, MOI = 5, H1-HeLa cells, TCID50, read-out: EC50
[11] = read-out: EC50 against infectious FLUV

hERG channel, sequence (Q12809 whole entry): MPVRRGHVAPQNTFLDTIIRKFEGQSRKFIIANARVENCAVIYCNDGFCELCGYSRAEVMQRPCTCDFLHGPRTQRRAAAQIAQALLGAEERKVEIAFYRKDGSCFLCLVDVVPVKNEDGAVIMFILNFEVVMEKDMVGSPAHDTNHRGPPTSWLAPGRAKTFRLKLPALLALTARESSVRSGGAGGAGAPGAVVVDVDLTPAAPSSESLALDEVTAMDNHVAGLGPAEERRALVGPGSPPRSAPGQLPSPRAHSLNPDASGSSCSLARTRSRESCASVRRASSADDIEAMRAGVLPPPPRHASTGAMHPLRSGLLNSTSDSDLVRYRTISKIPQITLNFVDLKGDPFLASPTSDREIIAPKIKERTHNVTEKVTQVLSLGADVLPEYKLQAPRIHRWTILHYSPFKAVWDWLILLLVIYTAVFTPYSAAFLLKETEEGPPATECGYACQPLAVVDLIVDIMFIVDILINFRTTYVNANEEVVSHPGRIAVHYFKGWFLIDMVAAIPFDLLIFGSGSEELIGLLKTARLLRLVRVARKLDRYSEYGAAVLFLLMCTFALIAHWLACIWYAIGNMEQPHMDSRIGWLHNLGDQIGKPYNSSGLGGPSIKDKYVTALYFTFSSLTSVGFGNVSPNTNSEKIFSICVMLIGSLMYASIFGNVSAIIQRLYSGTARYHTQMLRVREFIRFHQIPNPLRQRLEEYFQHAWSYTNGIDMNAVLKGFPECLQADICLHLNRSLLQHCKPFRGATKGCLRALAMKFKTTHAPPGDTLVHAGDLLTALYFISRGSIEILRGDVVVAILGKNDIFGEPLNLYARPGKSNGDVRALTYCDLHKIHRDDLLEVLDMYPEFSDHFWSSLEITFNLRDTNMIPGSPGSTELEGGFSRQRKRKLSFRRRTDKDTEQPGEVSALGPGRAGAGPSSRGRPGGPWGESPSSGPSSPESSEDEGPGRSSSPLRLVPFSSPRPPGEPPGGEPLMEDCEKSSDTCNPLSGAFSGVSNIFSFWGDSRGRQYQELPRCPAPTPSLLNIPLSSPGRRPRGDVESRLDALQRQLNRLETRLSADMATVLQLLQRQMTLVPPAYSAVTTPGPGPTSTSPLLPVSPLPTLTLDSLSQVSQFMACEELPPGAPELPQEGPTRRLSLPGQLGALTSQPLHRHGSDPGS
14-3-3 zeta (YWHAZ), sequence (P63104 whole entry): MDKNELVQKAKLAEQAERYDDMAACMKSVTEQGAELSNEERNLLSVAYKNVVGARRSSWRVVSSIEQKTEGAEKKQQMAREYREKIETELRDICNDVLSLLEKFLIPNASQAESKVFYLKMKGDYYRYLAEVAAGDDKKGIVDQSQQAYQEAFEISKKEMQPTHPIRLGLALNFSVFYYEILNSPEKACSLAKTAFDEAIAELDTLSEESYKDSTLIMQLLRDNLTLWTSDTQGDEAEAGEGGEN
5-HT2B, sequence (P41595 whole entry, species assumed): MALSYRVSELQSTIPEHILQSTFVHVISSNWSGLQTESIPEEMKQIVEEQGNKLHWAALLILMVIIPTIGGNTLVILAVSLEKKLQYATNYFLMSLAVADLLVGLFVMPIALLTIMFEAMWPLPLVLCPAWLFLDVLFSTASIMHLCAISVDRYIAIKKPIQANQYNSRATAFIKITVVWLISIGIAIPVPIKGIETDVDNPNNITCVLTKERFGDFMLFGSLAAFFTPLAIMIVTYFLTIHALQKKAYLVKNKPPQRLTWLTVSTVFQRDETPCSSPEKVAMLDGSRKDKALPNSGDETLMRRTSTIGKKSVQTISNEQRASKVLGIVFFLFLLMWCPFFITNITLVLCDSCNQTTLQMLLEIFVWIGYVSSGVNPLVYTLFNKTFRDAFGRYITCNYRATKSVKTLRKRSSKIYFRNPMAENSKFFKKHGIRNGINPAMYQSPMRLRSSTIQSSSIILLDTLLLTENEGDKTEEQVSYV

COc1cccc(CNC(=O)c2cc(C3CC3)nn2C)c1OC [PAV-835]
EC50 (HRV-16; [10]): < 1000 nM | EC50 (FLUV A/WSN/33): < 1000 nM | EC50 (FLUV A/WSN/33; [11]): 42 nM | IC50 (FLUV A/WSN/33): 14.8 nM | EC50 (MHV-68): < 1000 nM | likelihood of survival [1]: significantly increased the likelihood of survival | assembly of FLUV nucleoprotein into a completed capsid [2]: blocked assembly of FLUV nucleoprotein into a completed capsid in a dose-dependent manner | EC50 (BoCoV BRCV-OK-0514-2): < 1000 nM

COc1c(CNC(=O)c2cc(C3CC3)nn2C)cccc1OC(F)(F)F [PAV-431]
efficacy against SARS-CoV-2 WA 1/2020 (SARS-CoV-2 WA1/2020): significant efficacy | EC50 (SARS-CoV-2 WA1/2020; Severe acute respiratory syndrome coronavirus 2, Vero C1008, read-out: PAV-431 EC50): 100 nM | off-target effect at 5-HT2B (5-HT2B): potential off-target effects at high concentrations could be relevant | EC50 (HRV-16; HRV16, H1-HeLa, read-out: PAV-431 EC50): < 20 nM | EC50 (FLUV A/WSN/33; read-out: PAV-431 EC50): 25 nM | activity against rabies virus (rabies virus CVS-11): did not show significant activity against rabies virus | EC50 (rabies virus CVS-11; Rabies virus CVS-11, read-out: PAV-431 EC50): > 400 nM | EC50 [3]: ≤ 100 nM | 14-3-3 binding from PAV-104 resin flowthrough (14-3-3 zeta (YWHAZ)): a substantial amount of the 14-3-3 in the PAV-104 resin flowthrough bound to the PAV-431 resin | EC50 [4]: < 25 nM | clearance [5]: quick clearing tendency | distribution in brain [5]: good distribution in brain and lungs | distribution in lungs [5]: good distribution in brain and lungs | distribution in plasma [5]: good distribution in plasma | volume of distribution [5]: better volume of distribution than PAV-104 | concentration in lungs ([5]; ip): 167 nM | concentration in plasma ([5]; ip): 108 nM | levels obtained, oral route ([5]; po): too low to analyse the PK properties | EC50 [6]: 25 nM | RSV titre in lungs relative to vehicle (RSV A-2 virus): significant drop in viral titre; also recorded: small but statistically significant drop in RSV titre | EC50 [7]: 25 nM | amount of p62 in eluate (p62/SQSTM1): restored with PAV-431 treatment | activity against Nipah virus (Nipah virus rNiV-ZsG): comparably potent | EC50 (Nipah virus rNiV-ZsG; Henipavirus nipahense, read-out: PAV-431 EC50): ≤ 50 nM | bioavailability (in vivo): 59% | safety of dose [8]: found to be safe | EC50 [9]: < 100 nM | hERG channel inhibition (hERG channel): negative for hERG channel inhibition | EC50 (bovine coronavirus): 50 nM

COc1cccc(CNC(=O)c2cc(C(C)(C)C)nn2C)c1OC [PAV-773]
EC50 (HRV-16; [10]): < 1000 nM | EC50 (FLUV A/WSN/33): < 1000 nM | EC50 (FLUV A/WSN/33; [11]): 177 nM | IC50 (FLUV A/WSN/33): 176 nM | EC50 (MHV-68): < 1000 nM | likelihood of survival [1]: significantly increased the likelihood of survival | assembly of FLUV nucleoprotein into a completed capsid [2]: blocked assembly of FLUV nucleoprotein into a completed capsid in a dose-dependent manner | EC50 (BoCoV BRCV-OK-0514-2): < 1000 nM
